Experimental data published in the supplement of paper PMC10307832.

What was measured:
Assay in all cases: relative viability (nuclei count vs DMSO), 5 days (fraction); higher = more cells survive
EPLC-272H = system: EPLC-272H
Summary of the method: (§1)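 Medians of duplicate plates are given as relative viability. That measure is the nuclei count in treated wells divided by the count in vehicle wells. Counts were taken on 4× images of lung cancer cell lines in 1536-well plates, 5 days after pin-tool dosing the day after seeding with one drug alone or a fixed anchor-drug dose plus five library-drug doses (not always all listed) in √10 steps.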

H3255 = system: H3255
Summary of the method: as §1

HARA = system: HARA
Summary of the method: as §1

LC-2-ad = system: LC-2-ad
Summary of the method: as §1

LOU-NH91 = system: LOU-NH91
Summary of the method: as §1

NCI-H1650 = system: NCI-H1650
Summary of the method: as §1

NCI-H1651 = system: NCI-H1651
Summary of the method: as §1

NCI-H1975 = system: NCI-H1975
Summary of the method: as §1

NCI-H2009 = system: NCI-H2009
Summary of the method: as §1

NCI-H2023 = system: NCI-H2023
Summary of the method: as §1

NCI-H2085 = system: NCI-H2085
Summary of the method: as §1

NCI-H2087 = system: NCI-H2087
Summary of the method: as §1

NCI-H2170 = system: NCI-H2170
Summary of the method: as §1

NCI-H2228 = system: NCI-H2228
Summary of the method: as §1

NCI-H23 = system: NCI-H23
Summary of the method: as §1

NCI-H441 = system: NCI-H441
Summary of the method: as §1

NCI-H650 = system: NCI-H650
Summary of the method: as §1

NCI-H727 = system: NCI-H727
Summary of the method: as §1

NCI-H838 = system: NCI-H838
Summary of the method: as §1

PC-3 [JPC-3] = system: PC-3 [JPC-3]
Summary of the method: as §1

SW 1573 = system: SW 1573
Summary of the method: as §1

UMC-11 = system: UMC-11
Summary of the method: as §1

CCNC(=O)c1noc(-c2cc(C(C)C)c(O)cc2O)c1-c1ccc(CN2CCOCC2)cc1 [Luminespib] + C[C@@H](Oc1cc(-c2cnn(C3CCNCC3)c2)cnc1N)c1c(Cl)ccc(F)c1Cl [Crizotinib] (partner 1 µM)
relative viability (EPLC-272H; first compound 0.006325 µM): 0.892 | relative viability (EPLC-272H; first compound 0.02 µM): 0.655 | relative viability (EPLC-272H; first compound 0.06325 µM): 0.88 | relative viability (EPLC-272H; first compound 0.2 µM): 0.917 | relative viability (H3255; first compound 0.002 µM): 0.896 | relative viability (H3255; first compound 0.006325 µM): 0.691 | relative viability (H3255; first compound 0.02 µM): 0.755 | relative viability (H3255; first compound 0.06325 µM): 0.621 | relative viability (H3255; first compound 0.2 µM): 0.216 | relative viability (HARA; first compound 0.002 µM): 1.02 | relative viability (HARA; first compound 0.006325 µM): 0.957 | relative viability (HARA; first compound 0.02 µM): 1.17 | relative viability (HARA; first compound 0.06325 µM): 1.06 | relative viability (HARA; first compound 0.2 µM): 0.0699 | relative viability (LC-2-ad; first compound 0.002 µM): 0.48 | relative viability (LC-2-ad; first compound 0.006325 µM): 0.482 | relative viability (LC-2-ad; first compound 0.06325 µM): 0.289 | relative viability (LC-2-ad; first compound 0.2 µM): 0.262 | relative viability (LOU-NH91; first compound 0.002 µM): 0.765 | relative viability (LOU-NH91; first compound 0.006325 µM): 0.726 | relative viability (LOU-NH91; first compound 0.02 µM): 0.55 | relative viability (LOU-NH91; first compound 0.06325 µM): 0.328 | relative viability (LOU-NH91; first compound 0.2 µM): 0.351 | relative viability (NCI-H1650; first compound 0.002 µM): 0.944 | relative viability (NCI-H1650; first compound 0.006325 µM): 0.928 | relative viability (NCI-H1650; first compound 0.02 µM): 0.7 | relative viability (NCI-H1650; first compound 0.06325 µM): 0.12 | relative viability (NCI-H1650; first compound 0.2 µM): 0.134 | relative viability (NCI-H1651; first compound 0.002 µM): 0.85 | relative viability (NCI-H1651; first compound 0.006325 µM): 0.901 | relative viability (NCI-H1651; first compound 0.02 µM): 0.787 | relative viability (NCI-H1651; first compound 0.06325 µM): 0.813 | relative viability (NCI-H1651; first compound 0.2 µM): 0.63 | relative viability (NCI-H1975; first compound 0.002 µM): 0.975 | relative viability (NCI-H1975; first compound 0.006325 µM): 0.99 | relative viability (NCI-H1975; first compound 0.02 µM): 0.763 | relative viability (NCI-H1975; first compound 0.06325 µM): 0.147 | relative viability (NCI-H1975; first compound 0.2 µM): 0.15 | relative viability (NCI-H2009; first compound 0.002 µM): 1.14 | relative viability (NCI-H2009; first compound 0.006325 µM): 0.918 | relative viability (NCI-H2009; first compound 0.02 µM): 1.04 | relative viability (NCI-H2009; first compound 0.06325 µM): 0.0632 | relative viability (NCI-H2009; first compound 0.2 µM): 0.0663 | relative viability (NCI-H2023; first compound 0.002 µM): 0.772 | relative viability (NCI-H2023; first compound 0.006325 µM): 0.586 | relative viability (NCI-H2023; first compound 0.02 µM): 0.569 | relative viability (NCI-H2023; first compound 0.06325 µM): 0.0759 | relative viability (NCI-H2023; first compound 0.2 µM): 0.0557 | relative viability (NCI-H2085; first compound 0.002 µM): 1.04 | relative viability (NCI-H2085; first compound 0.006325 µM): 0.953 | relative viability (NCI-H2085; first compound 0.02 µM): 0.948 | relative viability (NCI-H2085; first compound 0.06325 µM): 0.383 | relative viability (NCI-H2085; first compound 0.2 µM): 0.272 | relative viability (NCI-H2087; first compound 0.002 µM): 0.934 | relative viability (NCI-H2087; first compound 0.006325 µM): 0.684 | relative viability (NCI-H2087; first compound 0.02 µM): 0.875 | relative viability (NCI-H2087; first compound 0.06325 µM): 0.156 | relative viability (NCI-H2087; first compound 0.2 µM): 0.145 | relative viability (NCI-H2170; first compound 0.002 µM): 1.19 | relative viability (NCI-H2170; first compound 0.006325 µM): 1.23 | relative viability (NCI-H2170; first compound 0.02 µM): 0.655 | relative viability (NCI-H2170; first compound 0.06325 µM): 1.08 | relative viability (NCI-H2170; first compound 0.2 µM): 0.355 | relative viability (NCI-H2228; first compound 0.002 µM): 0.47 | relative viability (NCI-H2228; first compound 0.006325 µM): 0.514 | relative viability (NCI-H2228; first compound 0.02 µM): 0.264 | relative viability (NCI-H2228; first compound 0.06325 µM): 0.161 | relative viability (NCI-H2228; first compound 0.2 µM): 0.148 | relative viability (NCI-H23; first compound 0.002 µM): 0.56 | relative viability (NCI-H23; first compound 0.006325 µM): 0.538 | relative viability (NCI-H23; first compound 0.02 µM): 0.445 | relative viability (NCI-H23; first compound 0.06325 µM): 0.119 | relative viability (NCI-H23; first compound 0.2 µM): 0.123 | relative viability (NCI-H441; first compound 0.002 µM): 0.884 | relative viability (NCI-H441; first compound 0.006325 µM): 0.719 | relative viability (NCI-H441; first compound 0.02 µM): 0.904 | relative viability (NCI-H441; first compound 0.06325 µM): 0.119 | relative viability (NCI-H441; first compound 0.2 µM): 0.109 | relative viability (NCI-H650; first compound 0.002 µM): 0.887 | relative viability (NCI-H650; first compound 0.006325 µM): 0.745 | relative viability (NCI-H650; first compound 0.02 µM): 0.487 | relative viability (NCI-H650; first compound 0.06325 µM): 0.0913 | relative viability (NCI-H650; first compound 0.2 µM): 0.102 | relative viability (NCI-H727; first compound 0.002 µM): 0.757 | relative viability (NCI-H727; first compound 0.006325 µM): 0.744 | relative viability (NCI-H727; first compound 0.02 µM): 0.739 | relative viability (NCI-H727; first compound 0.06325 µM): 0.212 | relative viability (NCI-H727; first compound 0.2 µM): 0.204 | relative viability (NCI-H838; first compound 0.002 µM): 0.947 | relative viability (NCI-H838; first compound 0.006325 µM): 0.78 | relative viability (NCI-H838; first compound 0.02 µM): 0.755 | relative viability (NCI-H838; first compound 0.06325 µM): 0.285 | relative viability (NCI-H838; first compound 0.2 µM): 0.101 | relative viability (PC-3 [JPC-3]; first compound 0.002 µM): 1.01 | relative viability (PC-3 [JPC-3]; first compound 0.006325 µM): 0.875 | relative viability (PC-3 [JPC-3]; first compound 0.02 µM): 0.971 | relative viability (PC-3 [JPC-3]; first compound 0.06325 µM): 0.996 | relative viability (PC-3 [JPC-3]; first compound 0.2 µM): 0.933 | relative viability (SW 1573; first compound 0.002 µM): 0.833 | relative viability (SW 1573; first compound 0.006325 µM): 0.853 | relative viability (SW 1573; first compound 0.02 µM): 0.757 | relative viability (SW 1573; first compound 0.06325 µM): 0.191 | relative viability (SW 1573; first compound 0.2 µM): 0.0946 | relative viability (UMC-11; first compound 0.002 µM): 0.606 | relative viability (UMC-11; first compound 0.006325 µM): 0.584 | relative viability (UMC-11; first compound 0.02 µM): 0.682 | relative viability (UMC-11; first compound 0.06325 µM): 0.156 | relative viability (UMC-11; first compound 0.2 µM): 0.107
